Measurements: publication doi:10.1101/2024.12.05.627101v1 (biorxiv, 2024)
Values belong to the compound of their own block, whether it stands above or below them.

Assays:
[1] = biological target: T1, human mGlu5 (hmGlu5) (Homo sapiens, UniProt P41594); test: iCa2+ mobilisation; format: cell-based
[2] = biological target: T1, human mGlu5 (hmGlu5); test: cell-based; set-up: species or system HEK293A; details: HEK293-A, read-out: iCa2+ human mGlu5 Emax
[3] = biological target: T1, human mGlu5 (hmGlu5); test: whole-cell [3H]methoxy-PEPy inhibition binding; format: cell-based
[4] = biological target: T1, human mGlu5 (hmGlu5); test: whole-cell [3H]methoxy-PEPy inhibition binding; format: cell-based; remark: listed apart in the source
[5] = biological target: T1, human mGlu5 (hmGlu5); test: IP1 accumulation; format: cell-based
[6] = biological target: T1, human mGlu5 (hmGlu5); test: IP1 accumulation; format: cell-based; remark: listed apart in the source
[7] = biological target: T1, human mGlu5 (hmGlu5); test: whole-cell saturation radioligand binding; format: cell-based

T1 sequence (P41594 21-1180 isoform P41594-2): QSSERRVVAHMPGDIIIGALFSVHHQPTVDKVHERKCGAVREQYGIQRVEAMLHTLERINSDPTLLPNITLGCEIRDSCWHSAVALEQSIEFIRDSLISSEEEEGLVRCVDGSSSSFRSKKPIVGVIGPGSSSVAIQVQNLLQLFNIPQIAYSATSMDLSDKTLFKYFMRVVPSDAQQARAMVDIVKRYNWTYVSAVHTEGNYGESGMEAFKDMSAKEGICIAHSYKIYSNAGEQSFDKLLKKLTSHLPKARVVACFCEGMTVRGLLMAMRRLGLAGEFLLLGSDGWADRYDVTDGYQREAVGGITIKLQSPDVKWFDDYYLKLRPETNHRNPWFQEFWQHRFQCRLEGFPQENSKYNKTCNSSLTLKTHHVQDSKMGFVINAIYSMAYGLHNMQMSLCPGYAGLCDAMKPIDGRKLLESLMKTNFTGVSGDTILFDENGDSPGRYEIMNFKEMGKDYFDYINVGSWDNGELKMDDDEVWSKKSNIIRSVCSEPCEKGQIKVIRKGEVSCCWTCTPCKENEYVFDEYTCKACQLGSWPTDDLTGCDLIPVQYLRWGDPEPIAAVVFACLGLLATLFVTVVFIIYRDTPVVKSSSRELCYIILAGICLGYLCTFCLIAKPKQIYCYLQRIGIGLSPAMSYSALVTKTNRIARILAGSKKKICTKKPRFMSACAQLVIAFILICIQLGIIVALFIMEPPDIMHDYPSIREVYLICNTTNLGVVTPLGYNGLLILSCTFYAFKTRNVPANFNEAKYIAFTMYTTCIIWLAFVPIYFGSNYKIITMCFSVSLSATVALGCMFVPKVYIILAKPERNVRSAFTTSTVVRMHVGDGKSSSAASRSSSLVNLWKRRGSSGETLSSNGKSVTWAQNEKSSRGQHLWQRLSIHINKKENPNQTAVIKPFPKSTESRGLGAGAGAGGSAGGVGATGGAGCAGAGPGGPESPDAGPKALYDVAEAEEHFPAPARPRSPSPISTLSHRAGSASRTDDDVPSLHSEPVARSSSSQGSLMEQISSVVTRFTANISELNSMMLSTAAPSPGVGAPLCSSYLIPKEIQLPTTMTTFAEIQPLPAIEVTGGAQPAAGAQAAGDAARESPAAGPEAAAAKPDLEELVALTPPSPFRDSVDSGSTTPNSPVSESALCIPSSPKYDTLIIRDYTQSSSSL

Kd [4]: 224 nM | IC50 [5]: 115 nM
SMILES: N#Cc1cc(F)cc(C(=O)Nc2cccc(Cl)c2F)c1 [VU0366248, N-(3-chloro-2-fluorophenyl)-3-cyano-5-fluorobenzamide]

Ki [3]: 1410 nM | EC50 [6]: 661 nM
SMILES: O=C(c1ccc(F)cc1)N1CCc2nc(COc3ccccc3)oc2C1 [VU0409551, (4-fluorophenyl)(2-(phenoxymethyl)-6,7-dihydrooxazolo[5,4-c]pyridin-5(4H)-yl)methanone]

Kd [4]: 35.5 nM | EC50 [1]: 275 nM | Emax [2]: 69.5 ± 4.5%
SMILES: C[C@@H](NC(=O)c1ccc(C#Cc2cccc(F)c2)cn1)C(C)(C)O [VU0424465, (R)-5-((3-fluorophenyl)ethynyl)-N-(3-hydroxy-3-methylbutan-2-yl)picolinamide]

Continued, compound first:

SMILES: N[C@H](C(=O)O)c1cc(O)cc(O)c1 [DHPG, (S)-3,5-dihydroxyphenylglycine]
EC50 [1]: 1100 nM | Emax [2]: 80.3 ± 2.5%

SMILES: O=C(COCc1ccc(F)cc1)N1CCN(c2ccc(F)cc2F)CC1 [DPFE, 1-(4-(2,4-difluorophenyl)piperazin-1-yl)-2-((4-fluorobenzyl)oxy)ethanone]
Ki [3]: 7410 nM

SMILES: CCCCOc1ccc(C(=O)Nc2ccc(F)cc2F)cc1 [VU0357121, 4-butoxy-N-(2,4-difluorophenyl)benzamide]
Kd [4]: 537 nM

SMILES: COc1cncc(C#Cc2ccccn2)c1 [[3H]methoxy-PEPy]
Kd [7]: 4.57 nM

SMILES: CN1CC(=O)N=C1NC(=O)Nc1cccc(Cl)c1 [fenobam, N-(3-chlorophenyl)-3-[(2e)-1-methyl-4-oxoimidazo-lidin-2-ylidene]urea]
Kd [4]: 81.3 nM | IC50 [5]: 55 nM

SMILES: N[C@@H](CCC(=O)O)C(=O)O [glutamate]
Emax [2]: 103 ± 3.9%
